ChEMBL document CHEMBL1201862, “PubChem BioAssay data set” (2004)
Calls of active or inactive are those of the source.

Assays:
[1] = target: T1, RNA-binding protein pos-1 (Caenorhabditis elegans, UniProt G5EF15); test: inhibitors of POS-1/mex-3 RNA binding, dose response, biochemical, fluorescence polarization (AID 1964);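 also: purified POS-1 fused to maltose binding protein made in E. coli; potency of compounds blocking POS-1 binding to fluorescent RNA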
T1 sequence (G5EF15 whole entry): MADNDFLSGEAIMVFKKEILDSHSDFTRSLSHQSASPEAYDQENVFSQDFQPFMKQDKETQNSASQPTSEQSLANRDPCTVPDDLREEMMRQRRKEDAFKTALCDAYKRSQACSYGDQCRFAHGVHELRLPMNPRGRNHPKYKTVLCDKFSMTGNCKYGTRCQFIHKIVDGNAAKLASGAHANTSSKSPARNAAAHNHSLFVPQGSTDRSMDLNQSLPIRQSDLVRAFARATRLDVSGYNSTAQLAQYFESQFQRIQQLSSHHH

[2] = target: T2, Zinc finger protein mex-5 (Caenorhabditis elegans, UniProt Q9XUB2); test: MEX-5/TCR-2 RNA interaction inhibitors, dose response, biochemical, C. elegans, fluorescence polarization (AID 1960)
T2 sequence (Q9XUB2 whole entry): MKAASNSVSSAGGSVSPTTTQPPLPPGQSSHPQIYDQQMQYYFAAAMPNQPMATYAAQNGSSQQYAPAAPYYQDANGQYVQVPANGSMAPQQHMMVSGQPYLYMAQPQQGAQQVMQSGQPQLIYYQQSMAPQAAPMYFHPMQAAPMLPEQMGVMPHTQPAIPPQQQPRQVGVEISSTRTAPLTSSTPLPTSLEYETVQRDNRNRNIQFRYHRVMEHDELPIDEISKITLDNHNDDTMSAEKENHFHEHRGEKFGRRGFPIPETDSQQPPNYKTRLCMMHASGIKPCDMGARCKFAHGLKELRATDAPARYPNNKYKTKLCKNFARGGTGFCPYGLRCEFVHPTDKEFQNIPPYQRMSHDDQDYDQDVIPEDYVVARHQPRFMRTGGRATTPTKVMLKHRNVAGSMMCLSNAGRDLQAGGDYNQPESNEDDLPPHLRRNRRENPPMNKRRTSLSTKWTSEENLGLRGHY

[3] = HepG2 cell cytotoxicity, dose response, cytotoxicity control, ATP luminescence, cherry-pick, activator set 2 (AID 1053143); format: functional, cell-based
[4] = target: T3, Replicative DNA helicase DnaB (Mycobacterium tuberculosis, UniProt P9WMR3); test: DnaB intein splicing inhibitors, dose response, biochemical, cell-free fluorescence (AID 449749); format: functional
T3 sequence (P9WMR3 whole entry): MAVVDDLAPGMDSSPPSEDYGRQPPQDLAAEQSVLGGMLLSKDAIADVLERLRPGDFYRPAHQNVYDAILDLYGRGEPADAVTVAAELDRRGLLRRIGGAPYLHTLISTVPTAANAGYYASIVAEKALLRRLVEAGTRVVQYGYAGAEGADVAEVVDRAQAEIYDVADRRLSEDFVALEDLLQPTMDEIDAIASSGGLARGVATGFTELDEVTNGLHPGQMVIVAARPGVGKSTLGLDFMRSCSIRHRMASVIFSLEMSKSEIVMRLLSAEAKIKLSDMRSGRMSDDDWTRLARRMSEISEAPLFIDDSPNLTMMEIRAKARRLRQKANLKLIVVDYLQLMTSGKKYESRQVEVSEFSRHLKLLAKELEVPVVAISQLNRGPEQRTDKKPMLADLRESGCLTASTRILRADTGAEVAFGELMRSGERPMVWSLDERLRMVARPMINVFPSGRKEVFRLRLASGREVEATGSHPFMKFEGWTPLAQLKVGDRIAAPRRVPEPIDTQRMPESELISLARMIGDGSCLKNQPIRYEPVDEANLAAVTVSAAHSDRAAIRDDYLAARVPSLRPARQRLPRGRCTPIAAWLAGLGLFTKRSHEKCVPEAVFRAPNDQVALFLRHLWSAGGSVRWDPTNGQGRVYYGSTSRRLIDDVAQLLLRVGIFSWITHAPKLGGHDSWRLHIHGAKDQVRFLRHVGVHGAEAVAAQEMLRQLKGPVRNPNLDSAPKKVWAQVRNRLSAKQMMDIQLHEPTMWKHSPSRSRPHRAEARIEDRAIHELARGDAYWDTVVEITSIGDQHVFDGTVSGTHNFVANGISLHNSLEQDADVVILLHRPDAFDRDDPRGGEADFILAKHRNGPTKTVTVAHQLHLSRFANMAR

[5] = target: T4, Protein RecA (Mycobacterium tuberculosis, UniProt P9WHJ3); test: Fluorescence Cell-Free Homogeneous Dose Retest to Identify Inhibitors of RecA-Intein Splicing Activity. [Related pubchem assays (depositor defined):AID2097, AID2223, AID489010, AID492950]; format: functional
T4 sequence (P9WHJ3 whole entry): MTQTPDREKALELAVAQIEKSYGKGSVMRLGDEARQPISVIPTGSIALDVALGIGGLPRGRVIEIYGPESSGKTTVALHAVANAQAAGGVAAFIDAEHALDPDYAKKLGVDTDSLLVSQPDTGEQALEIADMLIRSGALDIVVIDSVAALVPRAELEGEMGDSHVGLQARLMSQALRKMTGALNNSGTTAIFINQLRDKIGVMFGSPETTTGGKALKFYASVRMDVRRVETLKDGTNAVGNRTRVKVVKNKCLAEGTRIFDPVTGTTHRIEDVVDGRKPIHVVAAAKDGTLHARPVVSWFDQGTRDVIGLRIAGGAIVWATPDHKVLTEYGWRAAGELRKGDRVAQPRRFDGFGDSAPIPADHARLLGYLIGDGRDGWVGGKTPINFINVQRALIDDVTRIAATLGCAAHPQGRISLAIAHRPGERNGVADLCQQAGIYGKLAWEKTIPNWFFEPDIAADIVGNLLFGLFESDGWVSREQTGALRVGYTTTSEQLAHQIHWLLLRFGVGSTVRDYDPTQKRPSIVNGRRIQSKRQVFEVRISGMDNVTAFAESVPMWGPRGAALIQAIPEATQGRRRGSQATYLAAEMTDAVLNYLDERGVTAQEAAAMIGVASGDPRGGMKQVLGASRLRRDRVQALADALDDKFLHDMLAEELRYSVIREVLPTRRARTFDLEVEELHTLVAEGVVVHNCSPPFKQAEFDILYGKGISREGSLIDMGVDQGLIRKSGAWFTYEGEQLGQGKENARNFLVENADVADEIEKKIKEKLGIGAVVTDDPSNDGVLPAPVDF

[6] = target: T5, Probable nicotinate-nucleotide adenylyltransferase (Staphylococcus aureus (strain N315), UniProt P65502); format: functional, Staphylococcus aureus subsp. aureus N315;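 as to IC50 Mean: confirmatory dose-response retesting of NadD inhibitor hits first found in an ultra-high-throughput screen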
T5 sequence (P65502 whole entry): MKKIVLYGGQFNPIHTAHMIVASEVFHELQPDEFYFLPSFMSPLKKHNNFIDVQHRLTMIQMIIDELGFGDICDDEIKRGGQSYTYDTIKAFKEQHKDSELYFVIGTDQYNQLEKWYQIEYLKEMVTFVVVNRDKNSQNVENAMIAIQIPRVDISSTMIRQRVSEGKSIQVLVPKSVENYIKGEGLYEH

[7] = target: T5, Probable nicotinate-nucleotide adenylyltransferase; format: functional, Staphylococcus aureus subsp. aureus N315; conditions: read-out: IC50_Mean
[8] = target: Nonstructural protein 1 (Influenza A virus, UniProt Q194T2); format: functional, Influenza A virus (A/California/07/2009(H1N1))
Chain of Nonstructural protein 1 (Q194T2 whole entry): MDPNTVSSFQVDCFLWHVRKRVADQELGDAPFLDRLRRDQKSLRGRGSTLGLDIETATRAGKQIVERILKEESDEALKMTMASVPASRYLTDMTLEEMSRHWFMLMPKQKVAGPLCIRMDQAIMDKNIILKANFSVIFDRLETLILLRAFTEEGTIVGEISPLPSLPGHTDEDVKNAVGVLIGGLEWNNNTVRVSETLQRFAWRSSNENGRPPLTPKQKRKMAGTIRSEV

[9] = target: T6, Microphthalmia-associated transcription factor (Homo sapiens, UniProt O75030); test: TRPM1 promoter luciferase signal decrease, dose response, MITF inhibitor project, cell-based, SK-MEL-5, cherry-picked, set 3 (AID 493073); format: functional
T6 sequence (O75030 whole entry): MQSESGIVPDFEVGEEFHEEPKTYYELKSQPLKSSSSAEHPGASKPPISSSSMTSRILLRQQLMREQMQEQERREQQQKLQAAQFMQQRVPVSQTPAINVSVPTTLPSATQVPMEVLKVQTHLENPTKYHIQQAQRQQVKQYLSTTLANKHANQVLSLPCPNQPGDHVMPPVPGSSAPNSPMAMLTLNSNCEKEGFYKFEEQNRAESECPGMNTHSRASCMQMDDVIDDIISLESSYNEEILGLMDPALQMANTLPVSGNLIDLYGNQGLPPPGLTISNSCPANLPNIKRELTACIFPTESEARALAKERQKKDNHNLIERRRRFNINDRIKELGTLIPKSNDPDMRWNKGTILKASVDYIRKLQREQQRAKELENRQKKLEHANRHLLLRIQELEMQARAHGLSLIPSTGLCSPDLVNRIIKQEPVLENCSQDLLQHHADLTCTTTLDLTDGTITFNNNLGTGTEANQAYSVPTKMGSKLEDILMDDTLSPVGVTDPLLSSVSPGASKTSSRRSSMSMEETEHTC

[10] = target: Paired box protein Pax-8 (Homo sapiens, UniProt Q06710); test: inhibitors of PAX8-driven TPO luciferase reporter, dose response, RMG-I cells, cherry-pick (AID 687027); format: functional, cell-based;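 also: luciferase reporter driven by Pax8 target thyroperoxidase promoter measured by SteadyGlo luminescence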
Chain of Paired box protein Pax-8 (Q06710 whole entry): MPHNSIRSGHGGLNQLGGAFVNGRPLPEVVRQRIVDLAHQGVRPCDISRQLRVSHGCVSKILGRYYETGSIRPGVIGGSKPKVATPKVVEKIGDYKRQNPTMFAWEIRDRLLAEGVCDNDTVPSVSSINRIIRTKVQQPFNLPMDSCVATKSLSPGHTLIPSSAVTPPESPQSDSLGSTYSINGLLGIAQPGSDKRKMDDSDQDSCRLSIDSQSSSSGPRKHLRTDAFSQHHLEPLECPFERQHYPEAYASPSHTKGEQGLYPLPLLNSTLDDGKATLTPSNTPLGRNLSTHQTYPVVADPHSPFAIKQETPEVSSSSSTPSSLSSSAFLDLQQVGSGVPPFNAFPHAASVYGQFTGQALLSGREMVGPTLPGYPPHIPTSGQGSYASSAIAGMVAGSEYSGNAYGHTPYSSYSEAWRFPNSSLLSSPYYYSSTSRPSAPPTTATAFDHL

[11] = non-specific cell cytotoxicity, dose response, cytotoxicity control for PAX8 inhibitor project, plate reader, dry powder samples (AID 743021); format: functional, cell-based
[12] = HeLa cell cytotoxicity, dose response, cytotoxicity control for MgcRacGAP inhibitor project (AID 624300); format: functional
[13] = target: T7, Rac GTPase-activating protein 1 (Homo sapiens, UniProt Q9H0H5); test: MgcRacGAP GTPase-activating activity inhibitors, confirmation, biochemical, ADP Hunter fluorescence, primary and confirmatory (AID 624330); format: functional
T7 sequence (Q9H0H5 whole entry): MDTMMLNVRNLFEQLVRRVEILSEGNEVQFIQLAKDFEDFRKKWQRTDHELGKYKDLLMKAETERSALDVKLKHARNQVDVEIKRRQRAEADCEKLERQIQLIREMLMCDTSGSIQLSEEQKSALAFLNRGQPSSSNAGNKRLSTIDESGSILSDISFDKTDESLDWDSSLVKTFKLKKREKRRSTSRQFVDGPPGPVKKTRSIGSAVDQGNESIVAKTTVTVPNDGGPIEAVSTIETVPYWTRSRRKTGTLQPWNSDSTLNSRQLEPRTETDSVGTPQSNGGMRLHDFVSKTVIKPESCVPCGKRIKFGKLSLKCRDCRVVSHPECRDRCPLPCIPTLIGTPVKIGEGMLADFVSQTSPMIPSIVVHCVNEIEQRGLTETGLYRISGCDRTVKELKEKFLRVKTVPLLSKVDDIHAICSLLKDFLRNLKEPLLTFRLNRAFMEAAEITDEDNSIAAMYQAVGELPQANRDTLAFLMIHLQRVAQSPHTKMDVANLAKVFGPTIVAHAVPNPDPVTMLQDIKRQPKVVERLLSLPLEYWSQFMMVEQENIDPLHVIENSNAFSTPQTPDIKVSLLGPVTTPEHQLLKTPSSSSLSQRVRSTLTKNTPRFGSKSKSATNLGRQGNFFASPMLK

[14] = target: T8, Sentrin-specific protease 1 (Homo sapiens, UniProt Q9P0U3); test: potency of human SENP1 inhibitors, dose response, biochemical, kinetic FRET (AID 651697); format: functional; conditions: read-out: IC50_Mean
T8 sequence (Q9P0U3 whole entry): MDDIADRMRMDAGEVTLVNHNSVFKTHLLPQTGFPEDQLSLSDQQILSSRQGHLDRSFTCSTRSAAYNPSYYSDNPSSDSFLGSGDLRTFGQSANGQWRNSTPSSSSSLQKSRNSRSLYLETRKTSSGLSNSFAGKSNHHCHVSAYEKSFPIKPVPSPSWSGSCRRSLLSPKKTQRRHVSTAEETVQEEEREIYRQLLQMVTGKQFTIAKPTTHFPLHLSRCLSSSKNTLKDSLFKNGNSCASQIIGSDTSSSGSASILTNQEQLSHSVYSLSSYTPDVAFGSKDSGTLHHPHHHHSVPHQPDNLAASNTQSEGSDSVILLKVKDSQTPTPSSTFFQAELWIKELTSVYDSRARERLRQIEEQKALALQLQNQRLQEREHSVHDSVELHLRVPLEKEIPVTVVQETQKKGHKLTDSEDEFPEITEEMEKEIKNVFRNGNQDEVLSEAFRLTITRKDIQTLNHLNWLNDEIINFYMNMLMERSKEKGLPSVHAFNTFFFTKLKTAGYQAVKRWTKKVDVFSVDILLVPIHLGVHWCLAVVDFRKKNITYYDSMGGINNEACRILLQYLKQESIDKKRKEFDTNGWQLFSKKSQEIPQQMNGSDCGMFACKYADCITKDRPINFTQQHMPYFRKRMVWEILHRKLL

[15] = target: T8, Sentrin-specific protease 1; test: Dose response confirmation of small molecule inhibitors of the catalytic domain of the SUMO protease, SENP1 in a FRET assay.; format: functional; conditions: read-out: IC50_Mean
[16] = target: T9, Carboxy-terminal domain RNA polymerase II polypeptide A small phosphatase 1 (Homo sapiens, UniProt Q9GZU7); test: inhibitors of CTDSP1, concentration-response testing, biochemical assay, absorbance-based, actives from ultra-high-throughput screening (AID 540297); format: functional
T9 sequence (Q9GZU7 whole entry): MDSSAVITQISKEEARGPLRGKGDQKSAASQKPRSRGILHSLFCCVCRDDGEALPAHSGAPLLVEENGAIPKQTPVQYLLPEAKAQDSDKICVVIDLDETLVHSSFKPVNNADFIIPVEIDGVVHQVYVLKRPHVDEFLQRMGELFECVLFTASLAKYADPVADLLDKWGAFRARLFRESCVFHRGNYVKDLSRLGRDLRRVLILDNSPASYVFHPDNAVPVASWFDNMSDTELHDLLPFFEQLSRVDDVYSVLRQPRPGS

[17] = inhibitors of HIV Env-driven cell fusion, dose response, cherry-pick (AID 652057); format: functional, cell-based
[18] = CEM21 lymphoblast cell cytotoxicity, dose response, cytotoxicity control for viral fusion inhibitor project, CellTiter-Glo luminescence, cherry-picked (AID 652042); format: functional, cell-based;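 also: potency for signal decrease meaning cytotoxicity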

Structure (SMILES): O=c1c2ccccc2oc2ccc(NCCCn3ccnc3)cc12
- EC50 [1]: 55.2 µM (active)
- EC50 [2]: 50.5 µM (active)
- AC50 [3]: > 52 µM (inactive)

Structure (SMILES): CCn1c(SCC(=O)Nc2nc(-c3ccc(C)cc3)cs2)nnc1-c1ccccc1O
- AC50 [4]: 3.46 µM (active)
- EC50 [5]: 174 µM (active)
- IC50 [6]: 17.9 µM (active)
- IC50 [7]: 41.6 µM (active)

Structure (SMILES): CCS(=O)(=O)c1ccc(N=Nc2ccc(O)c3ncccc23)c(OC)c1
- IC50 [8]: 9.78 µM (active)
- AC50 [9]: 9.23 µM (active)
- AC50 [10]: 1.19 µM (active)
- AC50 [11]: 50.2 µM (active)

Structure (SMILES): CCOc1cc(C2NN=C(c3ccc(C)cc3)S2)ccc1O (stereo not drawn)
- CC50 [12]: 100 µM (active)
- IC50 [13]: 112 µM (active)
- AC50 [3]: > 52 µM (inactive)

Structure (SMILES): COC(=O)C1=CC(C(=O)c2cccs2)=NN(c2ccc(OC)cc2)C1C(=O)OC (stereo not drawn)
- IC50 [14]: 27.9 µM (inactive)
- IC50 [15]: 34.5 µM (inactive)

Structure (SMILES): COc1cccc(N2[C@@H](CC(=O)O)c3cc(C(F)(F)F)ccc3S2(=O)=O)c1
- IC50 [16]: 5.53 µM (active)
- IC50 [6]: 17.4 µM (active)
- IC50 [7]: 31.7 µM (active)

Structure (SMILES): C[C@@H]1CN([C@@H](C)CO)C(=O)c2cccc(NC(=O)c3cnccn3)c2O[C@H]1CN(C)Cc1ccc(Cl)c(Cl)c1
- AC50 [17]: 53.4 µM (active)
- AC50 [18]: 49.9 µM (active)

Structure (SMILES): COc1ccc(O)c(/C=N/n2c(-c3ccco3)cs/c2=N\c2cccnc2)c1
- IC50 [14]: 49.7 µM (inactive)
- IC50 [15]: 23.1 µM (inactive)
